Measurements published in patent US20140214336A1, “SYSTEMS AND METHODS FOR NETWORK-BASED BIOLOGICAL ACTIVITY ASSESSMENT” (PHILIP MORRIS PRODUCTS S.A., priority 2011, published 2014).

Experiments:
[1] = test system: Normal human bronchial epithelial (NHBE) cells; experiment: Cell cycle arrest and S-phase re-entry in NHBE cell culture (fluorescent S-phase labeling / FACS); assay type: cell-based
Description: (§1) The systems and methods described herein have been tested using a well-understood cell culture experiment. […] The treated cells were then allowed to re-enter the cell cycle by removal of the CDKI from the media and washing. Re-entry of the cell cycle was experimentally confirmed by labeling the cells fluorescently in S-phase at 2, 4, 6 and 8 hours after the CDKI was removed and the cells were washed. The gene transcription profiles of cells that were sampled 2, 4, 6, and 8 hours after the removal of the CDKI, were obtained. Profiles of cells that were continuously exposed to CDKI in media were also obtained. To identify biological processes and mechanisms that were differentially activated when CDKI was removed, network perturbation amplitude scores were calculated using gene transcription profiles of the washed cells obtained at various time point. For the computation of a NPA score for the perturbation associated with the removal of CDKI, a cell cycle subnetwork that comprises 127 nodes and 240 edges, was used. It is a subnetwork of the cell proliferation network model published in […] et al. (2011, “A computable cellular stress network model for non-diseased pulmonary and cardiovascular tissue” BMC Syst Biol. Oct 19; 5:168, which is incorporated herein by reference in its entirety). […]

[2] = test system: cell cycle subnetwork in NHBE cells; experiment: Network perturbation amplitude (NPA) score on the cell cycle subnetwork, from gene transcription profiles of NHBE cells; assay type: cell-based, human; details: from 2-hour to 8-hour time point after removal of CDKI, versus cells continuously exposed to CDKI; subnetwork of 127 nodes and 240 edges
Description: as §1

For `CC(=O)c1c(C)c2cnc(Nc3ccc(N4CCNCC4)cn3)nc2n(C2CCCC2)c1=O` [PD-0332991], the “number of cells in S-phase (FACS analysis, FIG. 17)” value ([1]; 2, 4, 6 and 8 hours after the CDKI was removed and the cells were washed) was “increase”, the “effect on cell cycle” value ([1]; NHBE cells exposed to the CDKI in media) was “arrests the cells in G1” and the “NPA scores (FIG. 18)” value [2] was “increase”.
